Tested on: sustained AF maintained during continuous vagal nerve stimulation
Test: Canine vagal-AF model: termination of sustained AF by drug infused IV
Assay type: in vivo, dog
Details: for Effective doses for terminating AF: anesthetized mongrel dogs, IV over 5 min, cell format number of dogs-dose
Procedure: Mongrel dogs of either sex weighing 15-49 kg are anesthetized with morphine (2 mg/kg im initially, followed by 0.5 mg/kg IV every 2 h) and α-chloralose (120 mg/kg IV followed by an infusion of 29.25 mg/kg/h; St.-Georges et al., 1997). Dogs are ventilated mechanically with room air supplemented with oxygen via an endotracheal tube at 20 to 25 breaths/minute with a tidal volume obtained from a nomogram. Arterial blood gases are measured and kept in the physiological range (SAO2>90%, pH 7.30-7.45). Catheters are inserted into the femoral artery for blood pressure recording and blood gas measurement, and into both femoral veins for drug administration and venous sampling. Catheters are kept patent with heparinized 0.9% saline solution. Body temperature is maintained at 37-40° C. with a heating blanket.
The heart is exposed via a medial thoracotomy and a pericardial cradle is created. Three bipolar stainless steel, Teflon™-coated electrodes are inserted into the right atria for recording and stimulation, and one is inserted into the left atrial appendage for recording. A programmable stimulator (Digital Cardiovascular Instruments, Berkeley, Calif.) is used to stimulate the right atrium with 2 ms, twice diastolic threshold pulses. Two stainless steel, Teflon™-coated electrodes are inserted into the left ventricle, one for recording and the other for stimulation. […]
Drug effects to terminate sustained AF maintained during continuous vagal nerve stimulation are assessed. […] The vagal stimulation voltage is adjusted under control conditions, and then readjusted after each treatment to maintain the same bradycardic effect. […]
Diastolic threshold current is determined at a basic cycle length of 300 ms by increasing the current 0.1 mA incrementally until stable capture is obtained. […] Atrial and ventricular ERP is measured with the extrastimulus method, over a range of S1S2 intervals at a basic cycle length of 300 ms. […] Diastolic threshold and ERP are determined in duplicate and averaged to give a single value. […]

SMILES: O=C(NCC1CCCCN1)c1cc(OCC(F)(F)F)ccc1OCC(F)(F)F (stereo not drawn) [Flecainide]
- Effective doses for terminating AF (AF terminated at this dose in 1 dog): 10 µmol/kg
- Effective doses for terminating AF (AF terminated at this dose in 4 dogs): 2.5 µmol/kg
- Effectiveness as a control in terminating vagal AF (control in the present study, compared with earlier reports): comparable to that previously reported
